The first assay addresses T1, SAE (Homo sapiens, UniProt Q9UBT2).
T1 construct: endogenous in cells; host or cells: HCT116
T1 sequence (Q9UBT2 1-640): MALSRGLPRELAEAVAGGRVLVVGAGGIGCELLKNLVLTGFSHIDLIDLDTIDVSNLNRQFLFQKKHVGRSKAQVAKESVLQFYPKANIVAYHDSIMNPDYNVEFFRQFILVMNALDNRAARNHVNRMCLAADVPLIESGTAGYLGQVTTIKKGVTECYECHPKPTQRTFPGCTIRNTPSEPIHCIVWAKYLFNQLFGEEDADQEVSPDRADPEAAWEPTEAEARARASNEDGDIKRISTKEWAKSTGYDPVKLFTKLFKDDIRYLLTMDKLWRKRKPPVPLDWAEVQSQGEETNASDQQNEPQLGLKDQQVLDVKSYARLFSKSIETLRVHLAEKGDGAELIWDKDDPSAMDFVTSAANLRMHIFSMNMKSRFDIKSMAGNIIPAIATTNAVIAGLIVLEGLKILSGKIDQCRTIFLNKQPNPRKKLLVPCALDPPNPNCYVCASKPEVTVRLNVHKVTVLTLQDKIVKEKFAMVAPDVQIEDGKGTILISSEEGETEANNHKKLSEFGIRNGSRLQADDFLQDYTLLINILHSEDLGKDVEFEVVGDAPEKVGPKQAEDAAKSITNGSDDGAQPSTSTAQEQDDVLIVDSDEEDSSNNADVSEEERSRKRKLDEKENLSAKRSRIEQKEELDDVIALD
T1 sequence (Q9UBE0 1-346): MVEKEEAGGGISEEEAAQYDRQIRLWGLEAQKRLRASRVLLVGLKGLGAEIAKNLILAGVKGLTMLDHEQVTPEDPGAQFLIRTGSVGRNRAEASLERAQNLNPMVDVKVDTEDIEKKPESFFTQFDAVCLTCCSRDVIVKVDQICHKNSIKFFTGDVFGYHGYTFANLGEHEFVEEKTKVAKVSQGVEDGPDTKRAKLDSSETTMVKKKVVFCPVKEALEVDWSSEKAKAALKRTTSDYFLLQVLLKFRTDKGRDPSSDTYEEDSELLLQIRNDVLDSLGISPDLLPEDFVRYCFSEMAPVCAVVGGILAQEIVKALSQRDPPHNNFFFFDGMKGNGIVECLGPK
Description: SUMO IF: in vitro inhibitory activity assay against SAE in HCT116 cells (SUMO-2/3 immunofluorescence). To be noted: class symbols, 6 h at 37° C. Format: cell-based. The method, then:
Biological Example 1. In Vitro Inhibitory Activity Assay of Compounds of the Present Disclosure Against SAE
HCT116 cells were seeded into a 96-well black transparent bottom plate at about 20000/well with 90 μL per well. The cells were incubated at 37° C. overnight for 24 h. The test compounds were 10-fold diluted to give a final concentration, and 10 μL of the diluted compounds was added to each well of the cell culture plate. The mixture was incubated at 37° C. for 6 h. The cells were then washed gently, the culture medium was discarded, and the cells were washed once with 200 μL of 0.1% PBST. 50 μL of 4% PFA was added to each well, and the cells were immobilized at room temperature for 20 min, and then washed with PBS 2-3 times. 50 μL of 0.2% Triton X-100 was added to each well, and the cells were left to stand at room temperature for 15 min and washed with 0.1% PBST 3 times. 100 μL of 3% BSA (0.6 g BSA+20 mL PBS) was added to each well, and the mixture was blocked at 37° C. for 30 min. After the blocking was completed, the liquid was removed and a primary antibody (SUMO-2/3 (18H8) Rabbit mAb, 1:400 dilution) was prepared with 1% BSA. 30 μL of the diluted primary antibody was added to each well, and the mixture was incubated at 4° C. overnight. The cells were washed 3 times with 200 μL of 0.1% PBST. A FITC secondary antibody (Fluorescein (FITC)-conjugated Affinipure Goat Anti-Rabbit IgG (H+L), 1:300 dilution) was further prepared with 1% BSA, and 40 μL of the diluted secondary antibody was added to each well. The mixture was incubated at room temperature in the dark for 2 h, and then the cells were washed 4 times with 0.1% PBST. The fluorescence signal of the sample was detected and compared to the DMSO group, and the inhibition rate and IC50 were calculated.
As usually defined, the IC50 is the concentration needed to halve the response being measured. Low readings indicate inhibition by little substance, high ones a need for much substance. `Cc1sc(C(=O)c2cncnc2N[C@H]2C[C@H](O)[C@@H](COS(N)(=O)=O)[C@@H]2F)cc1C1NCCc2ccc(C(F)(F)F)cc21` (stereo partly shown) [Compound 244]: the IC50 was 50 to 200 nM.
The same measure, in the same setting: in the case of `N#Cc1ccc2c(c1)C1(CCc3sc(C(=O)c4cncnc4N[C@H]4C[C@H](O)[C@@H](COS(N)(=O)=O)[C@@H]4F)cc31)NCC2` (stereo partly shown) [Compound 136] it was 50 to 200 nM.
For `NS(=O)(=O)OC[C@H]1[C@H](F)[C@@H](Nc2ncncc2C(=O)c2cc3c(s2)COC[C@@]32NCCc3ccccc32)C[C@@H]1O` [Compound 98], the half-inhibitory concentration (IC50) was > 200 nM.
On the same count and under the same terms, then `N#Cc1cc2c(cc1Cl)[C@@]1(CCc3sc(C(=O)c4cncnc4N[C@H]4C[C@H](O)[C@@H](COS(N)(=O)=O)[C@@H]4F)cc31)NCC2` [Compound 695], with ≤ 50 nM; and `Cc1cc2c(cc1Cl)[C@@]1(CCc3sc(C(=O)c4cncnc4N[C@H]4C[C@H](O)[C@@H](COS(N)(=O)=O)[C@@H]4F)cc31)NCC2` [Compound 694], with ≤ 50 nM.
As for `NS(=O)(=O)OC[C@H]1[C@H](F)[C@@H](Nc2ncncc2C(=O)c2cc3c(s2)CCC[C@@]32OCCc3ccccc32)C[C@@H]1O` [Compound 709], the IC50 is > 200 nM.
Consider `CC1(C)CN[C@]2(CCCc3sc(C(=O)c4cncnc4N[C@H]4C[C@H](O)[C@@H](COS(N)(=O)=O)[C@@H]4F)cc32)c2cc(Cl)ccc21` [Compound 1028], for which the IC50 was in the range of 50 to 200 nM.
`NS(=O)(=O)OC[C@H]1[C@H](F)[C@@H](Nc2ncncc2C(=O)c2cc3c(s2)COC[C@@]32NCCc3c(Cl)cc(Cl)cc32)C[C@@H]1O` [Compound 565]: the IC50 was > 200 nM.
In turn, `NS(=O)(=O)OC[C@H]1[C@H](F)[C@@H](Nc2ncncc2C(=O)c2cc3c(s2)CO[C@]32NCCc3ccc(Cl)cc32)C[C@@H]1O` [Compound 703] displayed an IC50 of 50 to 200 nM.
Still for that read-out and setting: in the case of `NS(=O)(=O)OC[C@H]1[C@H](F)[C@@H](Nc2ncncc2C(=O)c2cc3c(s2)CC[C@@]32OCCc3ccc(Cl)cc32)C[C@@H]1O` [Compound 706] it was > 200 nM; in that of `NS(=O)(=O)OC[C@H]1[C@H](F)[C@@H](Nc2ncncc2C(=O)c2cc3c(s2)CC[C@]32NCCc3cc(Cl)ncc32)C[C@@H]1O` [Compound 700], 50 to 200 nM; in that of `COc1cc2c(cc1Cl)[C@@]1(CCCc3sc(C(=O)c4cncnc4N[C@H]4C[C@H](O)[C@@H](COS(N)(=O)=O)[C@@H]4F)cc31)NCC2` [Compound 675], 50 to 200 nM.
On to `COc1ccc2c(c1)C1(CCc3sc(C(=O)c4cncnc4N[C@H]4C[C@H](O)[C@@H](COS(N)(=O)=O)[C@@H]4F)cc31)NCC2` (stereo partly shown) [Compound 150], for which the 50% inhibitory concentration (IC50) is > 200 nM.
The same measure, in the same setting: in the case of `NS(=O)(=O)OC[C@H]1[C@H](F)[C@@H](Nc2ncncc2C(=O)c2cc3c(s2)CC[C@]32NCCc3cc(Cl)c(Cl)cc32)C[C@@H]1O` [Compound 693] it was ≤ 50 nM.
For `COc1ccc2c(c1)[C@@]1(CCCc3sc(C(=O)c4cncnc4N[C@H]4C[C@H](O)[C@@H](COS(N)(=O)=O)[C@@H]4F)cc31)NCC2` [Compound 644], the IC50 was > 200 nM.
`NS(=O)(=O)OC[C@H]1[C@H](F)[C@@H](Nc2ncncc2C(=O)c2cc3c(s2)OC[C@]32NCCc3ccccc32)C[C@@H]1O` [Compound 141] showed a half-inhibitory concentration (IC50) of 50 to 200 nM.
`NS(=O)(=O)OC[C@H]1[C@H](F)[C@@H](Nc2ncncc2C(=O)c2cc3c(s2)OC[C@]32NCCc3ccc(Cl)cc32)C[C@@H]1O` [Compound 147] displayed an IC50 of 50 to 200 nM.
In turn, `N#Cc1cc2c(cc1Cl)C1(CCc3sc(C(=O)c4cncnc4N[C@H]4C[C@H](O)[C@@H](COS(N)(=O)=O)[C@@H]4F)cc31)NCC2` (stereo partly shown) [Compound 156] registered a concentration for half-maximal inhibition (IC50) of 50 to 200 nM.
Take `NS(=O)(=O)OC[C@H]1[C@H](F)[C@@H](Nc2ncncc2C(=O)c2cc3c(s2)CCCC32OCCc3ccc(F)cc32)C[C@@H]1O` (stereo partly shown) [Compound 711]: the IC50 fell in the range of 50 to 200 nM.
For the compound `NS(=O)(=O)OC[C@H]1[C@H](F)[C@@H](Nc2ncncc2C(=O)c2cc3c(s2)CCCC32NCCc3ccc(Cl)cc32)C[C@@H]1O` (stereo partly shown) [Compound 88], the IC50 is ≤ 50 nM.
For `Cc1sc(C(=O)c2cncnc2N[C@H]2C[C@H](O)[C@@H](COS(N)(=O)=O)[C@@H]2F)cc1C1NCCc2cc(F)c(F)cc21` (stereo partly shown) [Compound 245], the IC50 is 50 to 200 nM.
Regarding `NS(=O)(=O)OC[C@H]1[C@H](F)[C@@H](Nc2ncncc2C(=O)c2cc3c(s2)COC[C@@]32NCCc3c(F)cc(Cl)cc32)C[C@@H]1O` [Compound 574], the 50% inhibitory concentration (IC50) is > 200 nM.
For the compound `NS(=O)(=O)OC[C@H]1[C@H](F)[C@@H](Nc2ncncc2C(=O)c2cc3c(s2)CCC[C@@]32NCCc3cnc(Cl)cc32)C[C@@H]1O` [Compound 598], the 50% inhibitory concentration (IC50) was > 200 nM.
Same read-out and setting: in the case of `CC1(C)CN[C@]2(C=Cc3sc(C(=O)c4cncnc4N[C@H]4C[C@H](O)[C@@H](COS(N)(=O)=O)[C@@H]4F)cc32)c2cc(Cl)ccc21` [Compound 1061] it was 50 to 200 nM.
Still for that read-out and setting: in the case of `COc1cc2c(cc1Cl)C1(CCc3sc(C(=O)c4cncnc4N[C@H]4C[C@H](O)[C@@H](COS(N)(=O)=O)[C@@H]4F)cc31)NCC2` (stereo partly shown) [Compound 157] it was 50 to 200 nM; in that of `Cc1ccc2c(c1)C1(CCc3sc(C(=O)c4cncnc4N[C@H]4C[C@H](O)[C@@H](COS(N)(=O)=O)[C@@H]4F)cc31)NCC2` (stereo partly shown) [Compound 148], 50 to 200 nM; in that of `[2H]C1(c2cc(C(=O)c3cncnc3N[C@H]3C[C@H](O)[C@@H](COS(N)(=O)=O)[C@@H]3F)sc2C)NCCc2ccc(Cl)cc21` (stereo partly shown) [Compound 269], 50 to 200 nM.
On to `NS(=O)(=O)OC[C@H]1[C@H](F)[C@@H](Nc2ncncc2C(=O)c2cc3c(s2)COCC32NCCc3ccc(Cl)c(Cl)c32)C[C@@H]1O` (stereo partly shown) [Compound 558], for which the IC50 lay in the range of 50 to 200 nM.
As to `NS(=O)(=O)OC[C@H]1[C@H](F)[C@@H](Nc2ncncc2C(=O)c2cc3c(s2)CCC32NCCc3cc(F)c(F)cc32)C[C@@H]1O` (stereo partly shown) [Compound 152], the IC50 was in the range of 50 to 200 nM.
`CN1Cc2sc(C(=O)c3cncnc3N[C@H]3C[C@H](O)[C@@H](COS(N)(=O)=O)[C@@H]3F)cc2[C@]2(C1)OCCc1ccccc12` [Compound 719] had a concentration for half-maximal inhibition (IC50) of 50 to 200 nM.
`CC1Cc2ccc(Cl)cc2[C@@]2(CCCc3sc(C(=O)c4cncnc4N[C@H]4C[C@H](O)[C@@H](COS(N)(=O)=O)[C@@H]4F)cc32)N1` (stereo partly shown) [Compound 1025] registered an IC50 of 50 to 200 nM.
Still for that read-out and setting: in the case of `NS(=O)(=O)OC[C@H]1[C@H](F)[C@@H](Nc2ncncc2C(=O)c2cc3c(s2)CCC32NCC(=O)c3ccc(Cl)cc32)C[C@@H]1O` (stereo partly shown) [Compound 167] it was 50 to 200 nM; in that of `Cc1cc2c(cc1Cl)C(c1cc(C(=O)c3cncnc3N[C@H]3C[C@H](O)[C@@H](COS(N)(=O)=O)[C@@H]3F)sc1C)NCC2` (stereo partly shown) [Compound 248], 50 to 200 nM; in that of `NS(=O)(=O)OC[C@H]1[C@H](F)[C@@H](Nc2ncncc2C(=O)c2cc3c(s2)C(=O)C[C@]32NCCc3ccc(Cl)cc32)C[C@@H]1O` [Compound 632], 50 to 200 nM.
In turn, `NS(=O)(=O)OC[C@H]1[C@H](F)[C@@H](Nc2ncncc2C(=O)c2cc3c(s2)CC[C@]32OCCc3ccc(F)cc32)C[C@@H]1O` [Compound 749] had a 50% inhibitory concentration (IC50) of 50 to 200 nM.

The same assay, now with this note: numeric values, 6 h at 37° C.
Regarding `C#CCN1Cc2sc(C(=O)c3cncnc3N[C@H]3C[C@H](O)[C@@H](COS(N)(=O)=O)[C@@H]3F)cc2[C@@]2(C1)NCCc1ccc(Cl)cc12` [Compound 658], the IC50 was > 1000 nM.
In turn, `NS(=O)(=O)OC[C@H]1[C@H](F)[C@@H](Nc2ncncc2C(=O)c2cc3c(s2)CC[C@]32NCCc3ccccc32)C[C@@H]1O` [Compound 129] registered a 50% inhibitory concentration (IC50) of 121 nM.

For the origin of these results see US20260297109A1, “COMPOUNDS AS SUMO ACTIVATING ENZYME INHIBITORS” (WIGEN BIOMEDICINE TECHNOLOGY (SHANGHAI) CO., LTD., priority 2022, published 2026).
